Data on 87 compounds can be found in PubChem BioAssay AID1320 (NMMLSC, 2008).

Structures are written as SMILES. Activity calls are given as the source filed them. No rule for the calls is given here.

Bcl-2-related protein A1 (Homo sapiens), sequence (Q16548 whole entry, looked up): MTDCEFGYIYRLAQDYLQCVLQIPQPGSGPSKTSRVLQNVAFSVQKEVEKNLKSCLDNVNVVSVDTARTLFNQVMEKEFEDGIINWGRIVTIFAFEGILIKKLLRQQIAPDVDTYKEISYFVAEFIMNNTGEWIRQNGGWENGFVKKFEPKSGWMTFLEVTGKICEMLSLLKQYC

One test addresses Bcl-2-related protein A1 (Homo sapiens) (UniProt Q16548). Nature of the test: Bfl-1/Bim complex disruptors – biochemical, multiplexed, bead-based flow cytometry, dose response (AID 1320). As to percent span (inhibition): test concentration not given here. The note with it: Bim peptide-Bfl-1 binding, fluorescence. A general note: A flow cytometer gives signals particle by particle.
Turning to `O=C(N/N=C/c1ccc(O)c(O)c1O)/C(=C/c1ccc([N+](=O)[O-])cc1)NC(=O)c1ccccc1`, the concentration giving a half-maximal response (EC50) is 5.22 µM.

The test is the same for the next values; noted with them: Bim peptide-Bfl-1 binding, fluorescence, stronger effect = higher value.
For the compound `Cc1cc(C)nc(SCc2cc(=O)c(OC(=O)c3cccc([N+](=O)[O-])c3)co2)n1`, the “percent span (inhibition)” value is “inactive”.

For the compound `COc1ccc(CCNC(=O)c2cc(-c3ccccn3)nc3c(Cl)cccc23)cc1OC`, the “percent span (inhibition)” value was “inactive”.

Turning to `CCOc1ccccc1NC(=O)CSc1ccc2nnc(-c3cccnc3)n2n1`, the “percent span (inhibition)” value is “inactive”.

Take `CCc1ccc(/C=C/C(=O)c2cc(Br)ccc(=O)c2O)cc1`: the “percent span (inhibition)” value is “inactive”.

Consider `COc1ccc(C)cc1-n1c(=O)c2ccccc2c2ccccc2c1=O`, for which the “percent span (inhibition)” value was “inactive”.

Take `CCc1cccc(CC)c1NC(=S)N1CCn2cccc2C1c1cccnc1` (configuration not stated): the “percent span (inhibition)” value was “inactive”.

`C(=C\c1ccccc1)/CSc1nnc(-c2ccccn2)n1Cc1ccco1`: the “percent span (inhibition)” value is “inactive”.

For the compound `CCOC(=O)c1nc(Nc2ccc(N3CCC(C)CC3)cc2)c2ccccc2n1`, the “percent span (inhibition)” value is “inactive”.

Consider `CCSc1nnc(NC(=O)c2c(-c3ccccc3Cl)noc2C)s1`, for which the “percent span (inhibition)” value is “inactive”.

In the case of `COCCn1nnnc1CN(Cc1ccco1)Cc1cc2cc3c(cc2[nH]c1=O)OCO3`, the “percent span (inhibition)” value was “inactive”.

For the compound `CCCCC(=O)Nc1ccc(C(=O)N2CCC(C(=O)OCC)CC2)cc1`, the “percent span (inhibition)” value was “inactive”.

On to `COC(=O)/C(=C/c1ccc(F)cc1)NC(C)=O`, for which the “percent span (inhibition)” value is “inactive”.

As for `Brc1ccc2ncnc(Nc3ccc(N4CCOCC4)cc3)c2c1`, the “percent span (inhibition)” value was “inactive”.

On to `O=C(C[n+]1ccc(-c2nnc3n2CCC3)cc1)c1ccc(Cl)cc1`, for which the “percent span (inhibition)” value was “inactive”.

Take `COc1cc(N2CCOCC2)ccc1C=C1C(=O)NC(=O)NC1=O`: the “percent span (inhibition)” value was “inactive”.

`O=C(Nc1nnc(C2CC2)s1)C1Cc2ccccc2CN1S(=O)(=O)c1ccccc1F` (configuration not stated): the “percent span (inhibition)” value was “inactive”.

As to `COCCCn1c(N)c(C(=O)Nc2sc3c(c2C(=O)OC)CCCC3)c2nc3ccccc3nc21`, the “percent span (inhibition)” value was “inactive”.

Consider `O=C(N/N=C/c1ccncc1)c1cccc(NC(=O)c2ccccc2Cl)c1`, for which the “percent span (inhibition)” value was “inactive”.

Regarding `CN1/C(=C\C(=O)Nc2ccc(Cl)cc2)C(C)(C)c2ccccc21`, the “percent span (inhibition)” value is “inactive”.

`NCC(c1ccccc1)c1c[nH]c2ccccc12` (configuration not stated): the “percent span (inhibition)” value was “inactive”.

Turning to `CCOc1ccc(N2C(=O)C(Cl)=C(Nc3ccccc3O)C2=O)cc1`, the “percent span (inhibition)” value was “inactive”.

`Cc1ccc(/C=C2\CCCC3=C2NC(=S)NC3c2ccc(C)cc2)cc1` (configuration not stated): the “percent span (inhibition)” value is “inactive”.

Take `CNc1ccccc(C(=O)/C=C/c2ccccc2OC)c1=O`: the “percent span (inhibition)” value is “inactive”.

Turning to `Cc1ccccc1-c1nc(-c2ccc(NC(=O)c3ccc4c(c3)OCO4)cc2)no1`, the “percent span (inhibition)” value is “inactive”.

For the compound `O=C(CNC(=O)c1ccc(S(=O)(=O)N2CCCC2)cc1)N/N=C/c1ccc(Cl)cc1Cl`, the “percent span (inhibition)” value is “inactive”.

Take `CCCCC(C(=O)OCC)C(N)Cc1ccc(F)cc1` (configuration not stated): the “percent span (inhibition)” value is “inactive”.

As for `Clc1nc2ccccc2cc1/C=N/Nc1nc2ccccc2[nH]1`, the “percent span (inhibition)” value was “inactive”.

Take `O=S1(=O)N=C(N(CCO)/N=C/c2ccncc2)c2ccccc21`: the “percent span (inhibition)” value is “inactive”.

Turning to `O=C(NCCN1CCOCC1)c1cc(Cl)ccc1[N+](=O)[O-]`, the “percent span (inhibition)” value was “inactive”.

Turning to `O=C(COc1ccccc1Br)NCc1ccccn1`, the “percent span (inhibition)” value was “inactive”.

Turning to `CC1=C2C(CCS2(=O)=O)CC2(C1)C(=O)OC(C)(C)OC2=O` (configuration not stated), the “percent span (inhibition)” value is “inactive”.

As for `CCN(CC)c1ccc(NC(=O)c2ccc(=O)[nH]c2)cc1S(=O)(=O)Nc1ccccc1OC`, the “percent span (inhibition)” value is “inactive”.

Take `CCCn1c(C)cc(-c2csc(N)n2)c1C`: the “percent span (inhibition)” value is “inactive”.

With `COc1ccc(C(=O)/C=C/c2cc(OC)c(O)c(OC)c2)c(F)c1`, the “percent span (inhibition)” value is “inactive”.

`CN(C)C(Cc1ccccc1)C(=O)c1cccs1` (configuration not stated): the “percent span (inhibition)” value was “inactive”.

For `CC(C)=C1C(=O)NN(c2ccc(C)c(Cl)c2)C1=O`, the “percent span (inhibition)” value is “inactive”.

For `Cc1ccc(S(=O)(=O)NC(=O)COc2ccccc2C)cc1`, the “percent span (inhibition)” value was “inactive”.

In the case of `N/C(=N\N=C/c1ccc(Br)cc1)N/N=C\c1ccc(Br)cc1`, the “percent span (inhibition)” value is “inactive”.

On to `CC(C)c1ccc(C2CC(c3ccc(Br)cc3)=NN2C(N)=S)cc1` (configuration not stated), for which the “percent span (inhibition)” value is “inactive”.

For `COc1cc2[nH]c(=S)nc(NCCc3ccc(S(N)(=O)=O)cc3)c2cc1OC`, the “percent span (inhibition)” value is “inactive”.

For the compound `Cc1[nH]nc(SCC(=O)NCc2ccc(F)cc2)c1[N+](=O)[O-]`, the “percent span (inhibition)” value is “inactive”.

On to `CC(C)n1nnnc1SCC(=O)N1CCN(C(=O)c2ccco2)CC1`, for which the “percent span (inhibition)” value was “inactive”.

With `COc1ccc(-n2c(SCC(=O)Nc3ccc(C(=O)O)cc3)nnc2-c2cccs2)cc1`, the “percent span (inhibition)” value is “inactive”.

As to `CCOC(=O)c1snc(-c2ccc(F)cc2)c1N`, the “percent span (inhibition)” value was “inactive”.

As to `Cc1cc(C)nc(/N=C(\N)N2CCc3ccccc32)n1`, the “percent span (inhibition)” value was “inactive”.

Regarding `Cc1cc(-c2nn(-c3ccccc3)cc2/C=C2\SC(N)=NC2=O)ccc1OC(C)C`, the “percent span (inhibition)” value is “inactive”.

As to `Cc1noc(C)c1CN1C(=O)NC(Cc2ccccc2)(Cc2ccccc2)C1=O`, the “percent span (inhibition)” value was “inactive”.

For the compound `CCOC(=O)c1cc2c(=O)n3cccc(C)c3nc2n(Cc2ccco2)c1=NC(=O)c1ccccc1`, the “percent span (inhibition)” value is “inactive”.

As for `CS(=O)(=O)NN1C(=O)c2ccccc2NC1c1ccccc1` (configuration not stated), the “percent span (inhibition)” value is “inactive”.

As to `CC(/C=C/C(=O)c1ccc(C)cc1)=C\c1ccccc1`, the “percent span (inhibition)” value is “inactive”.

Consider `COc1cc2[nH]c(=S)nc(NCC3CCCO3)c2cc1OC` (configuration not stated), for which the “percent span (inhibition)” value was “inactive”.

`CCOc1ccccc1NC(=O)CSc1nnc2ccc(-c3cccnc3)nn12`: the “percent span (inhibition)” value is “inactive”.

As to `Cc1cc(N2CCN(C)CC2)nc2ccc(NC(=S)N3CCC4(CC3)OCCO4)cc12`, the “percent span (inhibition)” value was “inactive”.

As to `Cc1ccc(C2=N/C(=C/c3cccs3)C(=O)N2Nc2ccccc2)cc1`, the “percent span (inhibition)” value is “inactive”.

For `Cc1ccc(-c2cc(C(=O)N3CCN(c4ncccn4)CC3)c3cc(Br)ccc3n2)o1`, the “percent span (inhibition)” value is “inactive”.

For `O=C(CSc1nc2ccsc2c(=O)n1Cc1ccc(C(=O)O)cc1)NCC1CCCO1` (configuration not stated), the “percent span (inhibition)” value is “inactive”.

As for `COc1ccccc1Oc1ccc2c(c1)C(=O)N(c1ccccc1)C2=O`, the “percent span (inhibition)” value is “inactive”.

For the compound `O=C(c1cnccn1)N1CCN(c2ccccc2F)CC1`, the “percent span (inhibition)” value is “inactive”.

In the case of `c1ccc(-c2nnc(OCCN3CCOCC3)c3ccccc23)cc1`, the “percent span (inhibition)” value is “inactive”.

For the compound `COc1ccc(NC(=O)C2=C(C)NC(=O)NC2c2cccc(OC)c2OC)c(OC)c1` (configuration not stated), the “percent span (inhibition)” value is “inactive”.

In the case of `Cc1ccc(N=c2ssnc2Cl)cc1`, the “percent span (inhibition)” value is “inactive”.

Consider `COCCN=c1scc(-c2ccco2)n1/N=C/c1ccc(O)c(O)c1O`, for which the “percent span (inhibition)” value is “inactive”.

As for `COc1ccccc1C1=Nc2cccc3cccc(c23)N1`, the “percent span (inhibition)” value was “inactive”.

As for `CC(CCc1ccccc1)NC(=O)C1CCN(S(=O)(=O)N2CCCCC2)CC1` (configuration not stated), the “percent span (inhibition)” value is “inactive”.

Take `CC(NCc1ccc(-c2ccccc2)cc1)C(O)c1ccccc1` (configuration not stated): the “percent span (inhibition)” value is “inactive”.

Take `O=C(OCc1cnc(Cl)s1)c1cccc(Cl)c1Cl`: the “percent span (inhibition)” value was “inactive”.

As to `Cc1csc(Nc2ccccc2C(F)(F)F)n1`, the “percent span (inhibition)” value is “inactive”.

With `CCn1c(SCC(=O)Nc2ccccc2-c2ccccc2)nnc1-c1ccoc1C`, the “percent span (inhibition)” value is “inactive”.

`O=C(c1cnccn1)N(Cc1cccs1)C1(C(=O)NC2CCCCC2)CCCCC1`: the “percent span (inhibition)” value is “inactive”.

As to `Fc1ccc(Cn2nnnc2C(c2ccc(Cl)cc2)N2CCSCC2)cc1` (configuration not stated), the “percent span (inhibition)” value is “inactive”.

With `CCSc1ncc(Cl)c(C(=O)Nc2sc3c(c2C(=O)NCc2cccnc2)CCCC3)n1`, the “percent span (inhibition)” value was “inactive”.

In the case of `CCCCOC(=O)c1nc(Cl)c(Cl)c(N)c1Cl`, the “percent span (inhibition)” value was “inactive”.

On to `O=C(CCCN1C(=O)c2cccc3cccc(c23)C1=O)N1CCN(c2ccccn2)CC1`, for which the “percent span (inhibition)” value was “inactive”.

As to `Cc1ccc(NS(=O)(=O)c2cc(NC(=O)c3ccc4c(c3)NC(=O)CS4)ccc2C)c(C)c1`, the “percent span (inhibition)” value was “inactive”.

For `S=C1NC2=C(CCC/C2=C\c2ccccc2)C(c2ccccc2)N1` (configuration not stated), the “percent span (inhibition)” value was “inactive”.

In the case of `CN(C)C(=O)N1CCC(C(=O)NC2CCCCCCC2)CC1`, the “percent span (inhibition)” value is “inactive”.

With `COc1ccc(NC(=O)c2cc(-c3ccc(C)o3)nc3ccccc23)cc1OC`, the “percent span (inhibition)” value was “inactive”.

For `COC(=O)C1C2c3ccccc3OC1(C)N=c1s/c(=C/c3cnn(C)c3C)c(=O)n12` (configuration not stated), the “percent span (inhibition)” value is “inactive”.

For the compound `C/C(=N\NC(=O)Cn1nc(C)c([N+](=O)[O-])c1C)c1ccc(O)cc1`, the “percent span (inhibition)” value was “inactive”.

For the compound `COc1cccc(/C=N/Nc2nn3cnnc3c3ccccc23)c1O`, the “percent span (inhibition)” value was “inactive”.

For the compound `COc1cc(NC(=S)NC(=O)c2cc(C)cc(C)c2)ccc1NC(=O)c1cccs1`, the “percent span (inhibition)” value was “inactive”.

In the case of `CN(C)c1ccc(/C=C2/SC(=O)N(CCN=C3NS(=O)(=O)c4ccccc43)C2=O)cc1`, the “percent span (inhibition)” value was “inactive”.

Turning to `CCNC(=O)N1c2ccc(OCC)cc2C(C)=CC1(C)C`, the “percent span (inhibition)” value is “inactive”.

Take `COCCNC(=O)CN1CCC(NC(=O)Nc2ccccc2)CC1`: the “percent span (inhibition)” value was “inactive”.

As for `O=C(/C=C/c1ccc(-c2ccccc2)o1)c1ccccc1`, the “percent span (inhibition)” value is “inactive”.

For `COc1ccc(C(=O)Nc2ccc(NC(=O)c3cccs3)cc2)cc1Cl`, the “percent span (inhibition)” value is “inactive”.

For orientation: EC50 means the concentration giving half of the maximal effect.
